# Measurements published in patent US20260250318A1, “COMPOSITIONS AND METHODS FOR CROSSING THE BLOOD BRAIN BARRIER” (VOYAGER THERAPEUTICS, INC., priority 2022, published 2026).
# Tested on: brain, spinal cord, and DRG of the NHPs
# Assay: NGS fold enrichment of synthetic library (passage 3) in NHPs, first cross-species screen
# Format: in vivo, cynomolgus macaques (Macaca fascicularis)
# Settings: synthetic library passage 3, intravenous, RNA NGS, brain of NHPs, relative to wild-type AAV9
# Procedure, shortened: (§1)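 Synthetic capsid library (passage 3) was given intravenously […] to NHPs aged 2-4 years and to BALB/c and C57Bl/6 mice (n=3 each, 6-8 weeks). After about 28 days in vivo, tissue RNA was RT-PCR amplified and NGS-sequenced; values are fold enrichment per variant relative to wild-type AAV9.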
row,Sequence,Fold enrichment over AAV9 in the brain of NHPs
1,GSGASRMSIQNQQT,1.045 fold
2,GSGQNQQTKVGHSA,1.079 fold
3,GSGSPHVKSQNQQT,37.551 fold
4,GSGNPVSHLQNQQT,1.121 fold
5,GSFSMHTHGQNQQT,2.535 fold
6,GPGSAHSSGQNQQT,1.785 fold
7,GSGQNQRGALATQT,1.722 fold
8,GSAAMSVRGQNQQT,1.029 fold
9,GIILGASSGQNQQT,3.630 fold
10,GGITWTDSGQNQQT,1.462 fold
11,GSGDLRISPQNQQT,2.012 fold
12,GSGQNRGISISQQT,1.057 fold
13,GSGLGMSTGQNQQT,3.110 fold
14,GLAHKTSSGQNQQT,1.106 fold
15,GSGQNQYLRLELQT,1.101 fold
16,GSGQNQQHANLNQT,1.410 fold
17,GSGHVPNSGLNQQT,2.091 fold
18,GSGLSHATQQNQQT,2.640 fold
19,GSGQSHRDVLNQQT,1.872 fold
20,GSGQTQVLKSNQQT,1.640 fold
21,GSGSVSQLGQNQQT,3.184 fold

# Same assay, conditions: synthetic library passage 3, intravenous, RNA NGS, spinal cord of NHPs, relative to wild-type AAV9
row,Sequence,Fold enrichment over AAV9 in the spinal cord of NHPs
1,GSGASRMSIQNQQT,0.111 fold
2,GSGQNQQTKVGHSA,1.256 fold
3,GSGSPHVKSQNQQT,13.649 fold
4,GSGNPVSHLQNQQT,1.037 fold
5,GSFSMHTHGQNQQT,0.118 fold
6,GPGSAHSSGQNQQT,4.392 fold
7,GSGQNQRGALATQT,1.117 fold
8,GSAAMSVRGQNQQT,2.386 fold
9,GIILGASSGQNQQT,4.868 fold
10,GGITWTDSGQNQQT,4.535 fold
11,GSGDLRISPQNQQT,16.207 fold
12,GSGQNRGISISQQT,2.166 fold
13,GSGLGMSTGQNQQT,5.499 fold
14,GLAHKTSSGQNQQT,0.915 fold
15,GSGQNQYLRLELQT,0.000 fold
16,GSGQNQQHANLNQT,0.094 fold
17,GSGHVPNSGLNQQT,0.653 fold
18,GSGLSHATQQNQQT,7.819 fold
19,GSGQSHRDVLNQQT,15.082 fold
20,GSGQTQVLKSNQQT,3.031 fold
21,GSGSVSQLGQNQQT,2.307 fold

# Same assay, conditions: synthetic library passage 3, intravenous, RNA from brain of NHPs, NGS, relative to wild-type AAV9
row,Sequence,Fold enrichment over AAV9 in the brain of NHPs
1,GSDQSKRGDSNQQT,1.225 fold
2,GSGERSISVQNQQT,1.264 fold
3,GLGSKNHSGQNQQT,1.187 fold
4,GSGQNQQHSSKATT,1.345 fold
5,GSGQNQQLKNSTST,1.235 fold
6,GSGQNQQTNLGHTT,1.383 fold
7,GSGQNQRATLSNQT,1.339 fold
8,GSEQTRQRGQNQQT,1.333 fold
9,GSGQNQQTVPSNLV,1.201 fold
10,GSGQNQQLVSRVQT,1.381 fold
11,GSGQNQQQRDGTLT,1.152 fold

# Same assay, conditions: synthetic library passage 3, intravenous, RNA from spinal cord of NHPs, NGS, relative to wild-type AAV9
row,Sequence,Fold enrichment over AAV9 in the spinal cord of NHPs
1,GSDQSKRGDSNQQT,0.639 fold
2,GSGERSISVQNQQT,1.619 fold
3,GLGSKNHSGQNQQT,5.046 fold
4,GSGQNQQHSSKATT,12.248 fold
5,GSGQNQQLKNSTST,1.703 fold
6,GSGQNQQTNLGHTT,1.523 fold
7,GSGQNQRATLSNQT,1.084 fold
8,GSEQTRQRGQNQQT,2.172 fold
9,GSGQNQQTVPSNLV,0.791 fold
10,GSGQNQQLVSRVQT,1.195 fold
11,GSGQNQQQRDGTLT,0.387 fold

# Tested on: brain
# Assay: NGS fold enrichment of synthetic library (passage 3) in BALB/c mice, first cross-species screen
# Format: in vivo
# Settings: synthetic library passage 3, intravenous, RNA NGS, brain of BALB/c mice, relative to wild-type AAV9
# Procedure, shortened: as §1
row,Sequence,Fold enrichment over AAV9 in the brain of Mice (BALB/c)
1,GSGASRMSIQNQQT,0.417 fold
2,GSGQNQQTKVGHSA,1.019 fold
3,GSGSPHVKSQNQQT,15.861 fold
4,GSGNPVSHLQNQQT,0.310 fold
5,GSFSMHTHGQNQQT,0.693 fold
6,GPGSAHSSGQNQQT,0.872 fold
7,GSGQNQRGALATQT,0.891 fold
8,GSAAMSVRGQNQQT,0.287 fold
9,GIILGASSGQNQQT,0.865 fold
10,GGITWTDSGQNQQT,0.468 fold
11,GSGDLRISPQNQQT,0.237 fold
12,GSGQNRGISISQQT,0.566 fold
13,GSGLGMSTGQNQQT,0.660 fold
14,GLAHKTSSGQNQQT,0.690 fold
15,GSGQNQYLRLELQT,0.839 fold
16,GSGQNQQHANLNQT,0.544 fold
17,GSGHVPNSGLNQQT,1.154 fold
18,GSGLSHATQQNQQT,0.638 fold
19,GSGQSHRDVLNQQT,0.280 fold
20,GSGQTQVLKSNQQT,0.975 fold
21,GSGSVSQLGQNQQT,0.375 fold

# Same assay, conditions: synthetic library passage 3, intravenous, RNA from brain of BALB/c mice, NGS, relative to wild-type AAV9
row,Sequence,Fold enrichment over AAV9 in the brain of Mice (BALB/c)
1,GSDQSKRGDSNQQT,0.267 fold
2,GSGERSISVQNQQT,0.173 fold
3,GLGSKNHSGQNQQT,0.224 fold
4,GSGQNQQHSSKATT,1.401 fold
5,GSGQNQQLKNSTST,0.538 fold
6,GSGQNQQTNLGHTT,1.281 fold
7,GSGQNQRATLSNQT,0.723 fold
8,GSEQTRQRGQNQQT,0.815 fold
9,GSGQNQQTVPSNLV,0.281 fold
10,GSGQNQQLVSRVQT,0.466 fold
11,GSGQNQQQRDGTLT,0.730 fold

# Tested on: brain
# Assay: NGS fold enrichment of synthetic library (passage 3) in C57Bl/6 mice, first cross-species screen
# Format: in vivo
# Settings: synthetic library passage 3, intravenous, RNA NGS, brain of C57Bl/6 mice, relative to wild-type AAV9
# Procedure, shortened: as §1
row,Sequence,Fold enrichment over AAV9 in the brain of Mice (C57Bl/6)
1,GSGASRMSIQNQQT,0.801 fold
2,GSGQNQQTKVGHSA,0.669 fold
3,GSGSPHVKSQNQQT,8.069 fold
4,GSGNPVSHLQNQQT,0.583 fold
5,GSFSMHTHGQNQQT,1.027 fold
6,GPGSAHSSGQNQQT,1.099 fold
7,GSGQNQRGALATQT,0.899 fold
8,GSAAMSVRGQNQQT,0.202 fold
9,GIILGASSGQNQQT,1.378 fold
10,GGITWTDSGQNQQT,1.472 fold
11,GSGDLRISPQNQQT,0.620 fold
12,GSGQNRGISISQQT,0.686 fold
13,GSGLGMSTGQNQQT,0.458 fold
14,GLAHKTSSGQNQQT,0.427 fold
15,GSGQNQYLRLELQT,0.416 fold
16,GSGQNQQHANLNQT,0.416 fold
17,GSGHVPNSGLNQQT,1.636 fold
18,GSGLSHATQQNQQT,1.111 fold
19,GSGQSHRDVLNQQT,0.138 fold
20,GSGQTQVLKSNQQT,1.599 fold
21,GSGSVSQLGQNQQT,0.596 fold

# Same assay, conditions: synthetic library passage 3, intravenous, RNA from brain of C57Bl/6 mice, NGS, relative to wild-type AAV9
row,Sequence,Fold enrichment over AAV9 in the brain of Mice (C57Bl/6)
1,GSDQSKRGDSNQQT,0.479 fold
2,GSGERSISVQNQQT,0.598 fold
3,GLGSKNHSGQNQQT,0.825 fold
4,GSGQNQQHSSKATT,1.350 fold
5,GSGQNQQLKNSTST,1.063 fold
6,GSGQNQQTNLGHTT,1.343 fold
7,GSGQNQRATLSNQT,0.947 fold
8,GSEQTRQRGQNQQT,0.574 fold
9,GSGQNQQTVPSNLV,0.434 fold
10,GSGQNQQLVSRVQT,0.656 fold
11,GSGQNQQQRDGTLT,0.760 fold
